# In patent US20250178998A1, “CRYSTAL FORM OF CYCLOHEXENONE COMPOUND” (TAIHO PHARMACEUTICAL CO., LTD., priority 2022, published 2025):
# Tests used:
# [1] = Dynamic moisture adsorption/desorption test; assay type: physicochemical; conditions: at 95% relative humidity, 25° C.
# Procedure: The type I crystal, type II crystal, and type III crystal of compound (I) obtained in Examples 1 to 3 were subjected to a moisture adsorption/desorption test after storage for 4 weeks.
# The moisture adsorption/desorption test was performed according to the following conditions.
# About 10 mg of the sample was filled in a dedicated quartz holder, and the weight of the sample at each humidity was continuously measured and recorded under the following conditions. The handling of the apparatus, including data processing, was in accordance with the method and procedure as instructed for each apparatus.
# Apparatus: VTI-SA+ (TA Instruments, Inc.)
# Drying temperature: 25° C.
# Temperature increase rate: 1° C./min
# Measurement temperature: 25° C.
# Relative humidity program: Increase by 5% RH from 5% RH to 95% RH and decrease by 5% RH from 95% RH to 5% RH
# [2] = Solid stability test (HPLC purity after storage); assay type: physicochemical; conditions: for Change in purity / Change in purity (in words) / Increase in related substances / Purity after 4 weeks of storage under sealed conditions at 25° C.: 25° C./60% RH (closed system), 4 weeks; for Purity after 4 weeks of storage under sealed conditions at 25° C. / Purity of compound (I) before storage: HPLC
# Procedure: The solid stability of the type I crystal, type II crystal, and type III crystal of compound (I) obtained in Examples 1 to 3 was evaluated after storage for 4 weeks.
# Storage condition: 25° C./60% RH (closed system)
# Storage amount: about 25 mg
# Storage container: glass bottle
# Changes in the purity of compound (I) and in the amounts of related substances (the amounts of substances detected other than compound (I)) were analyzed by weighing about 1 mg of the sample, dissolving it in 2 mL of acetonitrile, and accurately measuring 5 μL of this liquid for analysis by HPLC according to the following method. The handling of the apparatus, including data processing, was in accordance with the method and procedure as instructed for each apparatus.
# Column: YMC-Triart C8 (4.6×150 mm, 3 μm), produced by YMC Co., Ltd.
# Column temperature: 40° C.
# Sample concentration: 0.5 mg/mL
# Mobile phase A: Liquid mixture of water/acetonitrile (1:1 v/v)
# Mobile phase B: Acetonitrile
# ND3 neuronal cell line = test: Nerve growth stimulation effect: neurite bearing assay and neurite length assay; assay type: cell-based; conditions: for Number of cells (relative cell number, DMSO well = 1) / Neurite length per cell (relative activity, maximum activity of compound (I) = 1) / Proportion of neurite-bearing cells (relative activity, maximum activity of compound (I) = 1): 6 hours
# Procedure: To evaluate the nerve growth stimulation effect, neurite bearing assay (proportion of neurite-bearing cells) and neurite length assay (neurite length) were analyzed with reference to the method of Topalli et al. (Brain Research 1030 (2004), pp. 116-124).
# An ND3 neuronal cell line (European Collection of Authenticated Cell Cultures) was seeded in a DMEM medium containing 10% fetal bovine serum (0.6×10^4 cells/1 mL) in a 24-well plate. 24 hours later, the medium of seeded cells was removed, and a solution in which compound (I) that was sequentially diluted in dimethyl sulfoxide (DMSO) was adjusted in DMEM containing 0.1% bovine serum albumin so that the DMSO final concentration was 0.1%, was added to cells (evaluation performed in duplicate). After six hours from the addition, the proportion of neurite-bearing cells (the number of cells having a neurite longer than the diameter of the cell body/number of total cells), and the neurite length per cell were analyzed. Further, a test was performed in the same manner as described above, except that compound A was used in place of compound (I). The number of total cells, proportion of neurite-bearing cells, and neurite length per cell were analyzed using a MetaMorph Neurite Outgrowth Application Module (Molecular Devices Japan K. K.). The number of cells was defined as the relative cell number, taking the number of cells per well containing DMSO as 1 (Tables 4 and 5). […] The test was conducted multiple times, and the average value was shown. Data with a number of cells of 0.5 or more was used. Accordingly, if the number of cells was less than 0.5, the neurite length per cell and the proportion of neurite-bearing cells were defined as […]
# [3] = tested on: streptozotocin-induced diabetes mellitus (DM) rat model; test: Drug efficacy in diabetes mellitus (DM) rat model, bladder function by cystometry; assay type: in vivo, SD rats; conditions: STZ DM rats, oral twice a day for 4 weeks
# Procedure: To examine the effect of the compound in a diabetes mellitus model, bladder function was analyzed by cystometry based on the method of Saitoh et al. (European Journal of Pharmacology 501 (2004) 143-149).
# A streptozotocin (STZ) solution obtained by dissolving STZ in a citrate buffer solution (0.1 M citric acid, pH of 4.2) to a concentration of 32.5 mg/mL was prepared, and administered intraperitoneally (65 mg/kg) to SD rats to induce DM models. The same procedure was performed on sham rats except that a citrate buffer solution was used in place of the STZ solution.
# On the day after the model production and 4 weeks later, a blood sample was taken from the tail vein with the rats awake to measure the blood glucose level. […] Individuals with a blood glucose level of 300 mg/dL or more on the day after the production of the model and 4 weeks later were determined to be established DM models and used in subsequent operations. […]
# A pressure transducer (DX-360, Nihon Kohden Kogyo Co., Ltd.) and an infusion pump (TE-331S, Terumo Corporation) were connected via a three-way valve to the other end of the catheter inserted into the bladder. […] The volume of urination was automatically measured using an electronic balance (GX-200, A&D Company Limited) set directly under the holding cage, and recorded continuously on a computer using a PowerLab (sampling rate: 20/sec). […]
# [4] = Pharmacokinetics after oral administration to rats; assay type: in vivo, rat (Crl: CD (SD)); conditions: male rat, 10 mg/kg
# Procedure: The required amount of compound (I) was weighed, and a drug suspension was prepared in 0.5% hydroxypropyl methylcellulose. The number of rats in each group was two, and each drug suspension was administered orally to each male rat (Crl: CD (SD)) using an oral sonde (the dose of the compound was 10 mg/kg). At each blood collection point (0.5, 1, 2, 4, 8, and 24 hours after administration), blood was collected from the jugular vein using a syringe and a needle (the anticoagulant was heparin sodium). The collected blood was centrifuged (13000 rpm, 2 min, 4° C.) to prepare plasma, followed by deproteinization. Thereafter, the concentration of the compound in the plasma was measured by LC/MS/MS (LCMS-8040 (Shimadzu Corporation) or API 4000 (AB Sciex), LC: 30-A and 20-A series (Shimadzu Corporation) or Waters Acquity (Waters Corporation)). A drug suspension was prepared and administered, and the concentration of the compound was measured, in the same manner as described above, except that compound A was used in place of compound (I).
Compound,Moisture absorption [1],Change in purity [2],Change in purity (in words) [2],Increase in related substances [2],Purity after 4 weeks of storage under sealed conditions at 25° C. [2] [%],Purity of compound (I) before storage [2] [%],"Number of cells (relative cell number, DMSO well = 1) (ND3 neuronal cell line; 1 μM)","Number of cells (relative cell number, DMSO well = 1) (ND3 neuronal cell line; 3 μM)","Number of cells (relative cell number, DMSO well = 1) (ND3 neuronal cell line; 5 μM)","Number of cells (relative cell number, DMSO well = 1) (ND3 neuronal cell line; 10 μM)","Number of cells (relative cell number, DMSO well = 1) (ND3 neuronal cell line; 30 μM)",also measured
"COCCCCCCCCCCCCCCCC1=C(C)C(=O)CCC1(C)C [Type II crystal, 3-(15-methoxypentadecyl)-2,4,4-trimethylcyclohex-2-en-1-one]",almost no moisture absorption,−0.01%,almost no change in purity,almost no increase in related substances,99.72,99.73,,,,,,
"COCCCCCCCCCCCCCCCC1=C(C)C(=O)CCC1(C)C [Compound (I), 3-(15-methoxypentadecyl)-2,4,4-trimethylcyclohex-2-en-1-one]",,,,,,,1.06,1.01,0.94,0.92,0.96,"Number of cells (relative cell number, DMSO well = 1) (ND3 neuronal cell line; 100 μM): 0.92; Nerve growth stimulation effect compared to compound A (ND3 neuronal cell line; Table 5): excellent nerve growth stimulation effect; Number of relative cells (ND3 neuronal cell line; added in an amount of 1 to 100 μM): ≥ 0.5; Drug efficacy (residual urine volume, FIG. 10) as compared to compound A [3]: remarkable drug efficacy; Improvement in area under the curve (AUC) as compared to compound A [4]: ≥ 1900 times; Improvement in maximum blood concentration Cmax as compared to compound A [4]: ≥ 1100 times"
"COCCCCCCCCCCCCCCCC1=C(C)C(=O)CCC1(C)C [Type I crystal, 3-(15-methoxypentadecyl)-2,4,4-trimethylcyclohex-2-en-1-one]",almost no moisture absorption,+0.01%,almost no change in purity,almost no increase in related substances,99.71,99.70,,,,,,
"CC1=C(CCCCCCCCCCCCCCCO)C(C)(C)CCC1=O [Compound A, 3-(15-Hydroxypentadecyl)-2,4,4-trimethylcyclohex-2-en-1-one]",,,,,,,1.03,0.92,0.92,1.0,0.19,"Neurite length per cell (relative activity, maximum activity of compound (I) = 1) (ND3 neuronal cell line; 1 μM): 0.26; Proportion of neurite-bearing cells (relative activity, maximum activity of compound (I) = 1) (ND3 neuronal cell line; 1 μM): 0.24; Neurite length per cell (relative activity, maximum activity of compound (I) = 1) (ND3 neuronal cell line; 3 μM): 0.33; Proportion of neurite-bearing cells (relative activity, maximum activity of compound (I) = 1) (ND3 neuronal cell line; 3 μM): 0.34; Neurite length per cell (relative activity, maximum activity of compound (I) = 1) (ND3 neuronal cell line; 5 μM): 0.39; Proportion of neurite-bearing cells (relative activity, maximum activity of compound (I) = 1) (ND3 neuronal cell line; 5 μM): 0.41; Neurite length per cell (relative activity, maximum activity of compound (I) = 1) (ND3 neuronal cell line; 10 μM): 0.71; Proportion of neurite-bearing cells (relative activity, maximum activity of compound (I) = 1) (ND3 neuronal cell line; 10 μM): 0.70"
"COCCCCCCCCCCCCCCCC1=C(C)C(=O)CCC1(C)C [Type III crystal, 3-(15-methoxypentadecyl)-2,4,4-trimethylcyclohex-2-en-1-one]",almost no moisture absorption,,almost no change in purity,almost no increase in related substances,99.77,99.77,,,,,,
